Results from ChEMBL document CHEMBL6096653, “α-GalCer sp2-iminoglycolipid analogs as CD1d-dependent iNKT modulators: Evaluation of their immunotherapeutic potential in murine models of asthma and autoimmune hepatitis” (Eur J Med Chem, 2025).
Active and inactive are the calls of the source. The calls are words filed in the database; no cut-off is given here.

Legend:
[1] = test system: Mus musculus; assay: Anti-asthmatic activity in alpha-Galcer-induced female BALB/c mouse model assessed as reduction in IL-6 mRNA level in lung at 20 microg/g ip measured after 24 hrs by RT-PCR analysis; type: functional, organism-based; settings: dose 20.0 µg/g
[2] = test system: Splenocyte; assay: Immunostimulatory activity in BALB/c mouse Splenocyte assessed as induction of IFNgamma level at 25 uM incubated for 48 hrs by ELISA analysis; type: functional, cell-based
[3] = test system: Splenocyte; assay: Immunostimulatory activity in BALB/c mouse Splenocyte assessed as induction of IL-4 level at 25 uM incubated for 48 hrs by ELISA analysis; type: functional, cell-based
[4] = test system: Splenocyte; assay: Immunostimulatory activity in Cd1d knockout BALB/c mouse Splenocyte assessed as effect on of IFNgamma level at 10 to 25 uM incubated for 48 hrs by ELISA analysis; type: functional, cell-based; settings: dose 10-25 µM
[5] = test system: Splenocyte; assay: Immunostimulatory activity in Cd1d knockout BALB/c mouse Splenocyte assessed as effect on of IL-4 level at 10 to 25 uM incubated for 48 hrs by ELISA analysis; type: functional, cell-based; settings: dose 10-25 µM
[6] = test system: Splenocyte; assay: Immunostimulatory activity in BALB/c mouse Splenocyte assessed as induction of IFNgamma level at 10 to 25 uM incubated for 48 hrs by ELISA analysis; type: functional, cell-based; settings: dose 10-25 µM
[7] = test system: Splenocyte; assay: Immunostimulatory activity in BALB/c mouse Splenocyte assessed as induction of IL-4 level at 10 to 25 uM incubated for 48 hrs by ELISA analysis; type: functional, cell-based; settings: dose 10-25 µM
[8] = test system: iNKT hybridoma DN3A4-1.2 cell; assay: Immunostimulatory activity in mouse iNKT hybridoma DN3A4-1.2 cell assessed as induction of IL-2 secretion at 10 to 25 uM incubated for 48 hrs in presence of alpha-GalCer by ELISA analysis; type: functional, cell-based; settings: dose 10-25 µM
[9] = test system: iNKT hybridoma DN3A4-1.2 cell; assay: Immunostimulatory activity in mouse iNKT hybridoma DN3A4-1.2 cell assessed as induction of IL-2 level at 10 to 25 uM incubated for 48 hrs by ELISA analysis; type: functional, cell-based; settings: dose 10-25 µM
[10] = test system: Mus musculus; assay: Immunostimulatory activity in Th1-biased (OT-1) C57BL/6 mouse model transplanted with mouse Splenocyte assessed as increase in OVA-specific CD8+ T cells proliferation at 1 to 400 ug, ip pretreated with compound and ovalbumin for 2 hrs and measured after 2 days by flow cytometry analysis; type: functional, organism-based; settings: dose 1-400 µg, time 50.0 hrs
[11] = test system: Mus musculus; assay: Immunostimulatory activity in Th1-biased (OT-1) C57BL/6 mouse model transplanted with mouse Splenocyte assessed as increase in OVA-specific CD8+ T cells proliferation at 1 to 400 ug, ip pretreated with compound and ovalbumin for 2 hrs and measured after 3 days by flow cytometry analysis; type: functional, organism-based; settings: dose 1-400 µg, time 74.0 hrs
[12] = test system: Mus musculus; assay: Immunostimulatory activity in ip dosed Th1-biased (OT-1) C57BL/6 mouse model transplanted with mouse Splenocyte assessed as increase in OVA-specific CD8+ T cells proliferation pretreated with compound and ovalbumin for 2 hrs and measured after 2 days by flow cytometry analysis; type: functional, organism-based; settings: dose 400.0 µg, time 50.0 hrs
[13] = test system: Mus musculus; assay: Immunostimulatory activity in ip dosed Th1-biased (OT-1) C57BL/6 mouse model transplanted with mouse Splenocyte assessed as increase in OVA-specific CD8+ T cells proliferation pretreated with compound and ovalbumin for 2 hrs and measured after 3 days by flow cytometry analysis; type: functional, organism-based; settings: dose 400.0 µg
[14] = Toxicity in C57BL/6J mouse assessed as liver damage at 20 microg/g, ip measured after 18 hrs by H and E staining based analysis; type: organism-based; settings: in vivo, dose 20 µg/g
[15] = Toxicity in C57BL/6J mouse assessed as decrease in AST level in serum at 20 microg/g, ip measured after 18 hrs; type: organism-based; settings: in vivo, dose 20 µg/g
[16] = Toxicity in C57BL/6J mouse assessed as decrease in ALT level in serum at 20 microg/g, ip measured after 18 hrs; type: organism-based; settings: in vivo, dose 20 µg/g
[17] = test system: Mus musculus; assay: Anti-inflammatory activity in ConA-induced autoimmune hepatitis C57BL/6 mouse model assessed as reduction in IL-6 level in serum at 20 microg/g, ip pretreated with ConA for 18 hrs followed by compound addition and measured after 18 hrs; type: functional, organism-based; settings: dose 20.0 µg/g
[18] = test system: Mus musculus; assay: Anti-inflammatory activity in ConA-induced autoimmune hepatitis C57BL/6 mouse model assessed as reduction in TNF-alpha level in serum at 20 microg/g, ip pretreated with ConA for 18 hrs followed by compound addition and measured after 18 hrs; type: functional, organism-based; settings: dose 20.0 µg/g
[19] = test system: Mus musculus; assay: Anti-asthmatic activity in alpha-Galcer-induced female BALB/c mouse model assessed as inhibition of airway hyperreactivity at 20 microg/g ip measured after 24 hrs; type: functional, organism-based; settings: dose 20.0 µg/g
[20] = test system: Mus musculus; assay: Anti-asthmatic activity in alpha-Galcer-induced female BALB/c mouse model assessed as reduction in TNF-alpha mRNA level in lung at 20 microg/g ip measured after 24 hrs by RT-PCR analysis; type: functional, organism-based; settings: dose 20.0 µg/g
[21] = test system: Mus musculus; assay: Anti-asthmatic activity in alpha-Galcer-induced female BALB/c mouse model assessed as reduction in Muc5ac mRNA level in lung at 20 microg/g ip measured after 24 hrs by RT-PCR analysis; type: functional, organism-based; settings: dose 20.0 µg/g
[22] = test system: Mus musculus; assay: Anti-asthmatic activity in alpha-Galcer-induced female BALB/c mouse model assessed as reduction in Gob5 mRNA level in lung at 20 microg/g ip measured after 24 hrs by RT-PCR analysis; type: functional, organism-based; settings: dose 20.0 µg/g
[23] = test system: Splenocyte; assay: Cytotoxicity against mouse Splenocyte assessed as cell viability at 25 uM by AlamarBlue assay; type: toxicity, cell-based

SMILES | Activity [2] | Activity [3] | Activity [4] | Activity [5] | Activity [7] | Activity [8] | Activity [9] | also measured
CCCCCCCCCCCCCC[C@@H](O)[C@@H](O)[C@H](CO[C@@H]1[C@H](O)[C@@H](O)[C@@H](O)[C@H]2COC(=O)N21)n1cc(CCCCCCCC)nn1 | Active | Active | inactive | inactive | Active | Active | Active | Activity [1]: Active; Activity [6]: Active; Activity [10]: Active; Activity [11]: Active; Activity [12]: Dose-dependent-effect; Activity [13]: Dose-dependent-effect; Activity [14]: Non-toxic; Activity [15]: Non-toxic; Activity [16]: Non-toxic; Activity [17]: Active; Activity [18]: Active; Activity [19]: Active; Activity [20]: Active; Activity [21]: Active; Activity [22]: Active
CCCCCCCCCCCCCC[C@@H](O)[C@@H](O)[C@H](CO[C@@H]1[C@H](O)[C@@H](O)[C@@H](O)[C@H]2COC(=O)N21)n1cc(CCCCCC)nn1 | inactive | Active | inactive | inactive | Active | – | – | Activity [23]: Toxic
CCCCCCCCCCCCCCCCCCCCCCCCCC(=O)N[C@@H](CO[C@@H]1[C@H](O)[C@@H](O)[C@H](O)[C@H]2COC(=O)N21)[C@H](O)[C@H](O)CCCCCCCCCCCCCC | inactive | inactive | – | – | – | Active | inactive | –
CCCCCCCCCCCCCC[C@@H](O)[C@@H](O)[C@H](CO[C@@H]1[C@H](O)[C@@H](O)[C@@H](O)[C@H]2COC(=O)N21)n1cc(CCCC)nn1 | inactive | – | – | – | – | – | – | –
CCCCCCCCCCCCCCCCCCCCCCCCCC(=O)N[C@@H](CO[C@@H]1[C@H](O)[C@@H](O)[C@@H](O)[C@H]2COC(=O)N21)[C@H](O)[C@H](O)CCCCCCCCCCCCCC | inactive | inactive | – | – | – | Active | inactive | –
CCCCCCCCCCCCCC[C@@H](O)[C@@H](O)[C@H](CO[C@@H]1[C@H](O)[C@@H](O)[C@@H](O)[C@H]2COC(=O)N21)n1cc(CCCCCCCCCCCC)nn1 | inactive | Active | inactive | inactive | Active | – | – | –
